Measurements from patent US20240109865A1, “INDAZOLE COMPOUNDS AS KINASE INHIBITORS” (TYRA BIOSCIENCES, INC., priority 2020, published 2024).

Key:
Experiment in all cases: Kinase assay, binding constants (Kd), kinase-tagged T7 phage, qPCR
[1] = target: FGFR1 (Homo sapiens (Human), UniProt P11362)
Method: (§1) Kinase-tagged T7 phage strains were prepared in an E. coli host derived from the BL21 strain. E. coli were grown to log-phase and infected with T7 phage and incubated with shaking at 32° C. until lysis. The lysates were centrifuged and filtered to remove cell debris. Streptavidin-coated magnetic beads were treated with biotinylated small molecule ligands for 30 minutes at room temperature to generate affinity resins for kinase assays. The liganded beads were blocked with excess biotin and washed with blocking buffer SeaBlock (Pierce), […], 1 mM DTT to remove unbound ligand and to reduce non-specific binding.
(§2) Test compounds were prepared as 111λ stocks in 10000 DMS0. Kds were determined using an 11-point 3-fold compound dilution series with three DMSO control points. […] The compounds were then diluted directly into the assays such that the final concentration of DMSO was 0.9%. All reactions performed in polypropylene 384-well plate. Each was a final volume of 0.02 ml. […] The beads were then re-suspended in elution buffer (1×PBS, 0.05% Tween […] non-biotinylated affinity ligand) and incubated at room temperature with shaking for 30 minutes. The kinase concentration in the eluates was measured by qPCR.
(§3) Binding constants were calculated with a standard dose-response curve using the Hill equation: […]
(§4) The Hill Slope was set to −1. Curves were fitted using a non-linear least square fit with the Levenberg-Marquardt algorithm.

[2] = target: FGFR2 (Homo sapiens (Human), UniProt P21802)
FGFR2, sequence (P21802 22-821): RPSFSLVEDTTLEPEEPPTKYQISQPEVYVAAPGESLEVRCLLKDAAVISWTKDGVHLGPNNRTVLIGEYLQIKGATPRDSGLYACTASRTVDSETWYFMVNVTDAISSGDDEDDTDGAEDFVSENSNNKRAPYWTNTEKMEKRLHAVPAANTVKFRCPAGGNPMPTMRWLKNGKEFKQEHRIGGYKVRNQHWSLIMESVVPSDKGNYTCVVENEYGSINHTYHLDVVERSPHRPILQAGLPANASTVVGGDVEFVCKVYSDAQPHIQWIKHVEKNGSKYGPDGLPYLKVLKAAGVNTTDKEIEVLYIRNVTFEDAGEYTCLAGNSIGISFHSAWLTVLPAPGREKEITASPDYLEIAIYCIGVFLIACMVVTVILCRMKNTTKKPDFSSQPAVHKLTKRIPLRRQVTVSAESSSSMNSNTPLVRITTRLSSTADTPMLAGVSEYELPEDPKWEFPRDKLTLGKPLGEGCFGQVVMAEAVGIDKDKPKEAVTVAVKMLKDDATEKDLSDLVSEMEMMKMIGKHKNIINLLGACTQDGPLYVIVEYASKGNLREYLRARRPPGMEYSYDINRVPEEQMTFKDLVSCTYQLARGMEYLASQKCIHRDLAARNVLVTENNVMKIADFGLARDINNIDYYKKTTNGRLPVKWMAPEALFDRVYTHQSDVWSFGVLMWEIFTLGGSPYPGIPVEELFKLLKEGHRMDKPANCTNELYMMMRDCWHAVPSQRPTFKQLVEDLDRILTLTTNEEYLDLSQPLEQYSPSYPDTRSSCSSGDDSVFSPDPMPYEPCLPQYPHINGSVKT
Method: as §1, §2, §3, §4

[3] = target: FGFR4 (Homo sapiens (Human), UniProt P22455)
FGFR4, sequence (P22455 22-802): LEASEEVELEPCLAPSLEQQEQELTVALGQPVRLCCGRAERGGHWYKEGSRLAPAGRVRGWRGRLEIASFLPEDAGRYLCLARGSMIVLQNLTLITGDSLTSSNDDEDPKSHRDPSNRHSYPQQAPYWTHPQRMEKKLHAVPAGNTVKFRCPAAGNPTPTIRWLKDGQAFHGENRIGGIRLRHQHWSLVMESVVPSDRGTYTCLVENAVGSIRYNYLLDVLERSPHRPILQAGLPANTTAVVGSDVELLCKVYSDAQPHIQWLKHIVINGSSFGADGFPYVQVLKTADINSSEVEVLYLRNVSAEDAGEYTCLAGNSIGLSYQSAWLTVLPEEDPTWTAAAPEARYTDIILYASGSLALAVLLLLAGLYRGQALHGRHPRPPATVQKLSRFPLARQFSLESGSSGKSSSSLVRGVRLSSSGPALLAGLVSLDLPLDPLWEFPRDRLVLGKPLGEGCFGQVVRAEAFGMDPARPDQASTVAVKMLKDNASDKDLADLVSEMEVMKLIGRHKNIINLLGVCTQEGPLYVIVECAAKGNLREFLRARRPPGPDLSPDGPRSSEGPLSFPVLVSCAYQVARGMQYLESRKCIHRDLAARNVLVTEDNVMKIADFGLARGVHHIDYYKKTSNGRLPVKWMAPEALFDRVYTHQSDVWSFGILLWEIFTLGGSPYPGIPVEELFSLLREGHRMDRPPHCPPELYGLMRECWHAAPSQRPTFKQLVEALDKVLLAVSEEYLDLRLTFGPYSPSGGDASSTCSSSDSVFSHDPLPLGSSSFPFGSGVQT
Method: as §1, §2, §3, §4

[4] = target: FGFR3 (Homo sapiens (Human), UniProt P22607)
FGFR3, sequence (P22607 23-806): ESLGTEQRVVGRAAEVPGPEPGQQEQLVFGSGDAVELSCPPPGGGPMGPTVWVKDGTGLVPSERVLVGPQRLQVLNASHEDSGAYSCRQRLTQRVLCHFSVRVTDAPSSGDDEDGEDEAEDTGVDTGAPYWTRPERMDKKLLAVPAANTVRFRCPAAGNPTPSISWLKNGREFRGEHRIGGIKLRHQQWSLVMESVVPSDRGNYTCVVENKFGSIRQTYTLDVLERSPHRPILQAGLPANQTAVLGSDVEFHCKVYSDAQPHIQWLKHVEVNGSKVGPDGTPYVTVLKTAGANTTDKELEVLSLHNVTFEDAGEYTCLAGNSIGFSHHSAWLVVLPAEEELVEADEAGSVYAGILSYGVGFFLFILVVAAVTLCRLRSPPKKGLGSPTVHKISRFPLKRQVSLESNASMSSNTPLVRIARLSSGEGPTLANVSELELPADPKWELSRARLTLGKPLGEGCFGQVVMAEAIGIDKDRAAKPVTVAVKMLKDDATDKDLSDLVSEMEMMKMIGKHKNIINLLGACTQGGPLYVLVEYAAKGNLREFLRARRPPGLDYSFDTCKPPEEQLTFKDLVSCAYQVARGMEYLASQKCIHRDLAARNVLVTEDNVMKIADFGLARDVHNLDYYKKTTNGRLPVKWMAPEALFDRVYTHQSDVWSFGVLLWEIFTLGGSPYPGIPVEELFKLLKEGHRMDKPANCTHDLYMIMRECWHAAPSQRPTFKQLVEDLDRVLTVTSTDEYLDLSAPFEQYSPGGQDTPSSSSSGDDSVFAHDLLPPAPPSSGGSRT
Method: as §1, §2, §3, §4

[5] = target: FGFR3 (V555M) (Homo sapiens (Human), UniProt P22607, V555M); conditions: V555M mutant
FGFR3 (V555M), sequence (P22607 23-806 V555M): as the sequence (P22607 23-806) above, with V533M counted along it
Method: as §1, §2, §3, §4

FGFR1, sequence (P11362 22-822): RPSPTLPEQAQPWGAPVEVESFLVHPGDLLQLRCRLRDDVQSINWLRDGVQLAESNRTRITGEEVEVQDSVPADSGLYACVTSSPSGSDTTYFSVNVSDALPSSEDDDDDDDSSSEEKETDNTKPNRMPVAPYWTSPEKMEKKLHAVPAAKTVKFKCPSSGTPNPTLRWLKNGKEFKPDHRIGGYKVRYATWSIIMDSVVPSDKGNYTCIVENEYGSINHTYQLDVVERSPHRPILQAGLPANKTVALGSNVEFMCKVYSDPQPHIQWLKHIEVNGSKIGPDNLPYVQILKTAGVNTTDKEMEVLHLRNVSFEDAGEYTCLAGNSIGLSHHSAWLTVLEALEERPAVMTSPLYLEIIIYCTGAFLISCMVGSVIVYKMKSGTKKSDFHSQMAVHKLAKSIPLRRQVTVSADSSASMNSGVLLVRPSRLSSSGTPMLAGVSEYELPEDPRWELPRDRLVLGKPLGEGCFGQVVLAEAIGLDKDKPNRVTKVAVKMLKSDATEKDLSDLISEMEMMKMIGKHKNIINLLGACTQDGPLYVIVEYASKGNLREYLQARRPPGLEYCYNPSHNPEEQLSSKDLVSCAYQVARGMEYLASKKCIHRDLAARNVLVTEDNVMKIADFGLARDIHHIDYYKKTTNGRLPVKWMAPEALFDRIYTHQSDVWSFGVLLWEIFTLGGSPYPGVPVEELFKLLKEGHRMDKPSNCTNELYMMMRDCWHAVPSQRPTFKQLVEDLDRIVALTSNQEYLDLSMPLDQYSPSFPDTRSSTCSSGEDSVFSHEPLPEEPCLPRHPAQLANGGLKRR

Row | SMILES | Kd [1] [nM] | Kd [2] [nM] | Kd [3] [nM] | Kd [4] [nM] | Kd [5] [nM]
1 | C[C@@H](Oc1ccc2[nH]nc(-c3ccc(N4CCN5CCC[C@@H]5C4)nc3)c2c1)c1c(Cl)cncc1Cl [Example 184, 3-[6-[(8aR)-3,4,6,7,8,8a-hexahydro-1H-pyrrolo[1,2-a]pyrazin-2-yl]-3-pyridyl]-5-[(1R)-1-(3,5-dichloro-4-pyridyl)ethoxy]-1H-indazole] | 1 to 20 | 1 to 20 | 1 to 20 | 1 to 20 | 1 to 20
2 | CCOC(=O)N1CC2(C1)CN(c1ncc(-c3n[nH]c4ccc(O[C@H](C)c5c(Cl)cnc(C)c5Cl)cc34)cn1)C2 [Example 185, ethyl 6-[5-[5-[(1R)-1-(3,5-dichloro-2-methyl-4-pyridyl)ethoxy]-1H-indazol-3-yl]pyrimidin-2-yl]-2,6-diazaspiro[3.3]heptane-2-carboxylate] | > 300 | 100 to 300 | 1 to 20 | 20 to 100 | 1 to 20
3 | CCOC(=O)N1CC2(C1)CN(c1ccc(-c3n[nH]c4ccc(O[C@H](C)c5c(Cl)cnc(C)c5Cl)cc34)cn1)C2 [Example 190, ethyl 6-[5-[5-[(1R)-1-(3,5-dichloro-2-methyl-4-pyridyl)ethoxy]-1H-indazol-3-yl]-2-pyridyl]-2,6-diazaspiro[3.3]heptane-2-carboxylate] | 100 to 300 | 100 to 300 | 20 to 100 | 1 to 20 | 1 to 20
4 | CCOC(=O)N1CC2(C1)CN(c1ccc(-c3n[nH]c4ccc(O[C@@H](C)c5c(Cl)cnc(F)c5Cl)cc34)cn1)C2 [Example 193, Ethyl 6-[5-[5-[(1S)-1-(3,5-dichloro-2-fluoro-4-pyridyl)ethoxy]-1H-indazol-3-yl]-2-pyridyl]-2,6-diazaspiro[3.3]heptane-2-carboxylate] | > 300 | > 300 | > 300 | > 300 | 100 to 300
5 | COC(=O)N1CC2(C1)CN(c1ccc(-c3n[nH]c4ccc(O[C@H](C)c5c(Cl)cnc(F)c5Cl)cc34)cn1)C2 [Example 195, methyl 6-[5-[5-[(1R)-1-(3,5-dichloro-2-fluoro-4-pyridyl)ethoxy]-1H-indazol-3-yl]-2-pyridyl]-2,6-diazaspiro[3.3]heptane-2-carboxylate] | 100 to 300 | 20 to 100 | 20 to 100 | 1 to 20 | 1 to 20
6 | CCOC(=O)N1CC2(C1)CN(c1ccc(-c3n[nH]c4ccc(O[C@H](C)c5c(Cl)cnc(F)c5Cl)cc34)cn1)C2 [Example 196, ethyl 6-[5-[5-[(1R)-1-(3,5-dichloro-2-fluoro-4-pyridyl)ethoxy]-1H-indazol-3-yl]-2-pyridyl]-2,6-diazaspiro[3.3]heptane-2-carboxylate] | 100 to 300 | 100 to 300 | 20 to 100 | 1 to 20 | 1 to 20
7 | C[C@@H](Oc1ccc2[nH]nc(-c3ccc(N4CC5(C4)CN(S(C)(=O)=O)C5)nc3)c2c1)c1c(Cl)cnc(F)c1Cl [Example 197, 5-[(1R)-1-(3,5-dichloro-2-fluoro-4-pyridyl)ethoxy]-3-[6-(2-methylsulfonyl-2,6-diazaspiro[3.3]heptan-6-yl)-3-pyridyl]-1H-indazole] | 20 to 100 | 20 to 100 | 1 to 20 | 1 to 20 | 1 to 20
8 | COC(=O)N1CC2(C1)CN(c1ccc(-c3n[nH]c4ccc(O[C@@H](C)c5c(Cl)cnc(F)c5Cl)cc34)cn1)C2 [Example 198, methyl 6-[5-[5-[(1S)-1-(3,5-dichloro-2-fluoro-4-pyridyl)ethoxy]-1H-indazol-3-yl]-2-pyridyl]-2,6-diazaspiro[3.3]heptane-2-carboxylate] | > 300 | > 300 | > 300 | 100 to 300 | 20 to 100
9 | C[C@H](Oc1ccc2[nH]nc(-c3ccc(N4CC5(C4)CN(S(C)(=O)=O)C5)nc3)c2c1)c1c(Cl)cnc(F)c1Cl [Example 199, 5-[(1S)-1-(3,5-dichloro-2-fluoro-4-pyridyl)ethoxy]-3-[6-(2-methylsulfonyl-2,6-diazaspiro[3.3]heptan-6-yl)-3-pyridyl]-1H-indazole] | > 300 | > 300 | > 300 | 100 to 300 | 20 to 100
10 | Cc1ncc(Cl)c([C@@H](C)Oc2ccc3[nH]nc(-c4ccc(N5CC6(COC6)C5)nc4)c3c2)c1Cl [Example 201, 6-[5-[5-[(1R)-1-(3,5-dichloro-2-methyl-4-pyridyl)ethoxy]-1H-indazol-3-yl]-2-pyridyl]-2-oxa-6-azaspiro[3.3]heptane] | 20 to 100 | 1 to 20 | 1 to 20 | 1 to 20 | 1 to 20
11 | C[C@@H](Oc1ccc2[nH]nc(-c3ccc(N4CC5(COC5)C4)nc3)c2c1)c1c(Cl)cnc(F)c1Cl [Example 203, 6-[5-[5-[(1R)-1-(3,5-dichloro-2-fluoro-4-pyridyl)ethoxy]-1H-indazol-3-yl]-2-pyridyl]-2-oxa-6-azaspiro[3.3]heptane] | 20 to 100 | 1 to 20 | 1 to 20 | 1 to 20 | 1 to 20

Other lines, results leading:

Row | Kd [1] [nM] | Kd [2] [nM] | Kd [3] [nM] | Kd [4] [nM] | Kd [5] [nM] | SMILES
12 | 100 to 300 | 20 to 100 | 20 to 100 | 1 to 20 | 1 to 20 | CCS(=O)(=O)N1CCCC2(CN(c3ccc(-c4n[nH]c5ccc(O[C@H](C)c6c(C)cnnc6C)cc45)cn3)C2)C1 [Example 186, 5-[(1R)-1-(3,5-dimethylpyridazin-4-yl)ethoxy]-3-[6-(8-ethylsulfonyl-2,8-diazaspiro[3.5]nonan-2-yl)-3-pyridyl]-1H-indazole]
13 | 1 to 20 | 1 to 20 | 1 to 20 | 1 to 20 | 1 to 20 | COC(=O)N1CCCC2(C1)CN(c1ccc(-c3n[nH]c4ccc(O[C@H](C)c5c(C)cnnc5C)cc34)cn1)C2 [Example 187, methyl 2-[5-[5-[(1R)-1-(3,5-dimethylpyridazin-4-yl)ethoxy]-1H-indazol-3-yl]-2-pyridyl]-2,8-diazaspiro[3.5]nonane-8-carboxylate]
14 | 20 to 100 | 1 to 20 | 1 to 20 | 1 to 20 | 1 to 20 | Cc1cnnc(C)c1[C@@H](C)Oc1ccc2[nH]nc(-c3ccc(N4CC5(CCCN(S(C)(=O)=O)C5)C4)nc3)c2c1 [Example 188, 5-[(1R)-1-(3,5-dimethylpyridazin-4-yl)ethoxy]-3-[6-(8-methylsulfonyl-2,8-diazaspiro[3.5]nonan-2-yl)-3-pyridyl]-1H-indazole]
15 | 20 to 100 | 1 to 20 | 1 to 20 | 1 to 20 | 1 to 20 | Cc1cnnc(C)c1[C@@H](C)Oc1ccc2[nH]nc(-c3ccc(N4CC5(CCCN(C(=O)OC(C)C)C5)C4)nc3)c2c1 [Example 189, isopropyl 2-[5-[5-[(1R)-1-(3,5-dimethylpyridazin-4-yl)ethoxy]-1H-indazol-3-yl]-2-pyridyl]-2,8-diazaspiro[3.5]nonane-8-carboxylate]
16 | 1 to 20 | 1 to 20 | 1 to 20 | 1 to 20 | 1 to 20 | COc1cc2[nH]nc(-c3ccc(N4CC5(C4)CN(S(C)(=O)=O)C5)nc3)c2cc1O[C@H](C)c1c(Cl)cncc1Cl [Example 191, 5-[(1R)-1-(3,5-dichloro-4-pyridyl)ethoxy]-6-methoxy-3-[6-(2-methylsulfonyl-2,6-diazaspiro[3.3]heptan-6-yl)-3-pyridyl]-1H-indazole]
17 | 100 to 300 | 20 to 100 | 100 to 300 | 1 to 20 | 1 to 20 | COc1cc2[nH]nc(-c3ccc(N4CC5(C4)CN(S(C)(=O)=O)C5)nc3)c2cc1O[C@@H](C)c1c(C)cnnc1C [Example 192, 5-[(1S)-1-(3,5-dimethylpyridazin-4-yl)ethoxy]-6-methoxy-3-[6-(2-methylsulfonyl-2,6-diazaspiro[3.3]heptan-6-yl)-3-pyridyl]-1H-indazole]
18 | 1 to 20 | 1 to 20 | 1 to 20 | 1 to 20 | 1 to 20 | COc1cc2[nH]nc(-c3ccc(N4CC5(C4)CN(S(C)(=O)=O)C5)nc3)c2cc1O[C@H](C)c1c(C)cnnc1C [Example 194, 5-[(1R)-1-(3,5-dimethylpyridazin-4-yl)ethoxy]-6-methoxy-3-[6-(2-methylsulfonyl-2,6-diazaspiro[3.3]heptan-6-yl)-3-pyridyl]-1H-indazole]
19 | > 300 | > 300 | > 300 | > 300 | 100 to 300 | COc1c(O[C@H](C)c2c(C)cnnc2C)ccc2[nH]nc(-c3ccc(N4CC5(C4)CN(S(C)(=O)=O)C5)nc3)c12 [Example 200, 5-[(1R)-1-(3,5-dimethylpyridazin-4-yl)ethoxy]-4-methoxy-3-[6-(2-methylsulfonyl-2,6-diazaspiro[3.3]heptan-6-yl)-3-pyridyl]-1H-indazole]
20 | 1 to 20 | 1 to 20 | 1 to 20 | 1 to 20 | 1 to 20 | COc1cc2[nH]nc(-c3ccc(N4CC5(COC5)C4)nc3)c2cc1O[C@H](C)c1c(C)cnnc1C [Example 202, 6-[5-[5-[(1R)-1-(3,5-dimethylpyridazin-4-yl)ethoxy]-6-methoxy-1H-indazol-3-yl]-2-pyridyl]-2-oxa-6-azaspiro[3.3]heptane]
